Measured values published in patent US11634423B2, “Substituted pyrazolo[1,5-a]pyrimidines as inhibitors of interferon signaling” (Eli Lilly and Company, priority 2020, dated 2023).

Columns and labels:
[1] = target: T1, pseudokinase domain (JH2) of human TYK2 (Homo sapiens, UniProt P29597); assay: TYK2-JH2 Tracer Binding Assay; conditions: TR-FRET tracer displacement, His-tagged TYK2-JH2 0.200 nM, Tracer 2.00 nM, 30 minutes
T1 construct: The pseudokinase domain (JH2) of human JAK; made in house
From the text: The pseudokinase domain (JH2) of human JAK (Janus family of cytoplasmic tyrosine kinases) family tyrosine kinase 2 (TYK2) (Genbank NP_003322) with an N-terminal His6 tag is expressed in baculovirus and purified by HisPur Ni-NTA affinity and Superdex 200 size-exclusion chromatography. The compound prepared in Preparation 17, a conjugate of Alexa Fluor 647 dye (Thermo Fisher Scientific) and a suitable TYK2 JH2 binder, is referred to herein as “the Tracer”. A 3 fold, 10 point serial dilution of compound (Examples 1, 2, and 3) are prepared in 100% DMSO and 50 nL/well transferred to a Proxiplate-384F white plate (PerkinElmer 6008280) using acoustic liquid handling. Control wells used to determine percent inhibition contained 100% DMSO (50 nL) and either assay buffer containing the Tracer (2.00 nM final concentration) (min, low FRET) or diluted TYK2-JH2 enzyme (0.200 nM final concentration) and the Tracer (2.00 nM final concentration) (max, high FRET).
5.0 μL of His-tagged TYK2-JH2 (0.402 nM) and LanthaScreen Eu-anti-HIS Ab (4.02 nM, LifeTech, PV5597) in assay buffer (50 mM HEPES […], 10 mM magnesium chloride, 1 mM ethylene glycol-bis(β-aminoethyl ether)-N,N,N′,N′-tetraacetic acid, 0.01% Brij-35 and Milli-Q) water is added to the Proxiplate-384 plate containing the 50 nL of diluted compound and control wells. 5.0 μL of the Tracer (2.00 nM final concentration) in assay buffer is added to the plate and allowed to equilibrate for 30 minutes at ambient temperature. After 30 minutes, the plate is counted on a PerkinElmer Envision with the following settings: Excitation (340 nm), Tracer Emission (665 nm) and LanthaScreen Eu-anti-His Antibody Emission (615 nm). The ratio of Tracer Emission (665 nm) over LanthaScreen Eu-anti-His Antibody Emission (615 nm) is determined. Percent inhibition of ratio at each inhibitor concentration is calculated using the max and min control wells and fit to the four parameter nonlinear logistic equation in GeneData Screener® to give an IC50 for the compounds tested.

[2] = tested on: IFNα signaling through pSTAT1 in TF1 cells; assay: Inhibition of IFNα signaling through pSTAT1 in TF1 cells; type: cell-based; conditions: Homo sapiens, TF-1, 1 hour preincubation, 10 ng/mL IFNα2 for 20 minutes, p-Stat1 (Tyr701) AlphaLISA, geometric mean (SEM), read-out: IFNα inh IC50
Protocol: TF1 cells (ATCC, CL-2003) are grown in RPMI 1640 (GIBCO) supplemented with 10% dialyzed FBS, 0.1 mg/mL Ampicillin and 2 ng/mL granulocyte macrophage colony stimulating factor. TF1 cells (100 K per well) are seeded in a 96-well poly-D-lysine coated plates in serum-free DMEM and incubated overnight at 37° C. under 5% CO2. Example 1 is serially diluted in DMSO, added to the cells, and incubated at 37° C. for 1 hour. Cells are then stimulated with 10 ng/mL IFNα2 at 37° C. for 20 minutes. After removing the medium, the cells are lysed in buffer containing Halt protease and phosphatase inhibitor cocktail (Thermo Scientific #78441) at ambient temperature for 30 minutes. The amount of p-Stat1 (Tyr701) is quantified as light emission at 615 nm using the AlphaLISA SureFire Ultra p-Stat1 (Tyr701) assay kit (Perkin Elmer #ALSU-PST1-A50K) following the vendor's recommended protocol. Percent inhibition at each inhibitor concentration is calculated and fit to the four parameter nonlinear logistic equation using Genedata Screener© to give an IC50 for the compounds tested expressed as GeoMetric means with the standard error of the mean (SEM).

[3] = tested on: IL-23 signaling (STAT3 phosphorylation) in Kit225 cells; assay: IL23 pSTAT3 AlphaLISA Assay; type: cell-based; conditions: 0.5 h, 1 hour preincubation, IL-23 25 ng/mL for 30 minutes, in presence of IL-2, relative IC50, geometric mean (SEM), read-out: IL-23 inh IC50
Protocol: IL-2-dependent Kit225 cells (University of Texas MD Anderson Cancer Center) expressing endogenous IL-23 receptors are stably transduced with the Lenti STAT3 Reporter linked to firefly luciferase (SABiosciences CLS-6028L). These cells are used to monitor TYK2 activity by quantifying gene expression caused by STAT3 phosporylation following induction by IL-23 in the presence of IL-2 using AlphaLISA technology (TGR Biosciences ALSU-TST3-A50K). The cells are grown in RPMI 1640 (Gibco 22400) supplemented with 10% FBS (Invitrogen 10082), 1× Pen/Strep (Gibco 15140-122), 200 ng/ml Puromycin (Sigma P9620), and fresh 10 ng/ml recombinant human IL-2 (R&D Systems 202-IL-50).
For assay preparation, cells are dispensed into Biocoat black poly-d-lysine coated clear bottom 384-well plates (Becton Dickinson Bio-Coat 35-4640) in DMEM (Sigma D5796) at 300,000 cells/well and allowed to incubate overnight at 37° C. Compounds solubilized in DMSO are serially diluted 1:3 to produce a 10-point concentration response curve (final DMSO=0.1%). Cells are pre-incubated with Example 1 for 1 hour at 37° C., then stimulated with IL-23 (25 ng/mL final) for 30 minutes. After centrifugation at 2000 rpm for 10 minutes, cell pellets are lysed with a mixture of 1:1 lysis buffer (TGR Biosciences) and Halt Protease & Phosphatase inhibitor cocktail (Thermo Scientific 1861281) for 30 minutes. The AlphaLISA reaction is performed following the vendor's recommended protocol, and the luciferase levels are measured using an Envision plate reader (Perkin Elmer). The relative IC50 is calculated using a 4-parameter nonlinear logistic equation (GeneData Screener 13.0.5) to give an IC50 for the compounds tested expressed as GeoMetric means with the standard error of the mean (SEM).

T1 sequence (P29597 589-875 limits assumed): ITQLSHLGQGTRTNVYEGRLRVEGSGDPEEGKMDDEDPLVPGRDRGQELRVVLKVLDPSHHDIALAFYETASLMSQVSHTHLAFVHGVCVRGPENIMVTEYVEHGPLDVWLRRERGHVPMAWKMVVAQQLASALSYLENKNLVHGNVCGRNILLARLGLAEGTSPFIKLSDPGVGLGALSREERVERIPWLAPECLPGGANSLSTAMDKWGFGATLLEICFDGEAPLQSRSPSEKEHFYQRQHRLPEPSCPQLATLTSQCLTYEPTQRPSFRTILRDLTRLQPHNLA

Row | IC50 [1] [nM] | IC50 [2] [nM] | IC50 [3] [nM] | SMILES
1 | < 0.254 | 112 | 65 | CNc1cc(Nc2cccn(-c3ccc(C)cn3)c2=O)nc2c(C(=O)N[C@@H]3CCN(C)C3=O)cnn12 [Example 1, 7-(Methylamino)-N-[(3R)-1-methyl-2-oxo-pyrrolidin-3-yl]-5-[[1-(5-methyl-2-pyridyl)-2-oxo-3-pyridyl]amino]pyrazolo[1,5-a]pyrimidine-3-carboxamide]
2 | < 0.254 | 106 | 101 | CNc1cc(Nc2cccn(-c3ccccn3)c2=O)nc2c(C(=O)N[C@@H]3CCN(C)C3=O)cnn12 [Example 3, 7-(Methylamino)-N-[(3R)-1-methyl-2-oxo-pyrrolidin-3-yl]-5-[[2-oxo-1-(2-pyridyl)-3-pyridyl]amino]pyrazolo[1,5-a]pyrimidine-3-carboxamide]
3 | < 0.254 | 206 | 101 | CNc1cc(Nc2cccn(-c3cccc(C)n3)c2=O)nc2c(C(=O)N[C@@H]3CCN(C)C3=O)cnn12 [Example 2, 7-(Methylamino)-N-[(3R)-1-methyl-2-oxo-pyrrolidin-3-yl]-5-[[1-(6-methyl-2-pyridyl)-2-oxo-3-pyridyl]amino]pyrazolo[1,5-a]pyrimidine-3-carboxamide]
